Laboratory results taken from the NIST ThermoML archive (doi:10.1016/j.jct.2013.05.024).
Numbers after ± are expanded uncertainties.

Experiment: excess molar enthalpy (molar enthalpy of mixing); xn = mol fraction of the nth substance listed
Conditions: 101.3 kPa, Liquid, Isoperibol calorimetry

CCOC(=O)C(=O)OCC [diethyl ethanedioate] + CCCO
excess molar enthalpy [kcal/mol]
Conditions	288.2 K	298.2 K	313.2 K	328.2 K
x1 = 0.0505	0.106 ± 0.00191	0.113 ± 0.00215	0.123 ± 0.00239	0.135 ± 0.00263
x1 = 0.1001	0.187 ± 0.00215	0.202 ± 0.00239	0.232 ± 0.00287	0.249 ± 0.00287
x1 = 0.1509	0.2524 ± 0.00239	0.2758 ± 0.00263	0.3152 ± 0.00311	0.3415 ± 0.00335
x1 = 0.1998	0.3033 ± 0.00287	0.3315 ± 0.00311	0.3776 ± 0.00335	0.4118 ± 0.00359
x1 = 0.2491	0.3415 ± 0.00311	0.3795 ± 0.00335	0.4328 ± 0.00382	0.4675 ± 0.00406
x1 = 0.2986	0.3755 ± 0.00335	0.4118 ± 0.00359	0.4696 ± 0.00406	0.5146 ± 0.0043
x1 = 0.3478	0.3996 ± 0.00335	0.4441 ± 0.00382	0.5043 ± 0.0043	0.5516 ± 0.00454
x1 = 0.4003	0.4192 ± 0.00359	0.4656 ± 0.00382	0.5284 ± 0.0043	0.5717 ± 0.00478
x1 = 0.4482	0.4302 ± 0.00359	0.4749 ± 0.00406	0.5382 ± 0.00454	0.5858 ± 0.00478
x1 = 0.499	0.4395 ± 0.00382	0.484 ± 0.00406	0.5447 ± 0.00454	0.5906 ± 0.00478
x1 = 0.5484	0.4371 ± 0.00359	0.4802 ± 0.00406	0.5392 ± 0.00454	0.586 ± 0.00478
x1 = 0.6007	0.4302 ± 0.00359	0.4732 ± 0.00382	0.5249 ± 0.0043	0.5648 ± 0.00454
x1 = 0.6509	0.4149 ± 0.00359	0.4527 ± 0.00382	0.5041 ± 0.00406	0.5368 ± 0.0043
x1 = 0.6986	0.3924 ± 0.00335	0.4247 ± 0.00359	0.4708 ± 0.00406	0.5038 ± 0.0043
x1 = 0.7487	0.3609 ± 0.00311	0.3877 ± 0.00335	0.4295 ± 0.00359	0.4517 ± 0.00382
x1 = 0.8015	0.3167 ± 0.00287	0.3403 ± 0.00311	0.3671 ± 0.00335	0.3853 ± 0.00335
x1 = 0.8509	0.2631 ± 0.00263	0.281 ± 0.00287	0.2988 ± 0.00287	0.3112 ± 0.00311
x1 = 0.9028	0.192 ± 0.00239	0.196 ± 0.00239	0.21 ± 0.00263	0.217 ± 0.00287
x1 = 0.9503	0.101 ± 0.00215	0.108 ± 0.00215	0.109 ± 0.00239	0.108 ± 0.00263

CCOC(=O)C(=O)OCC [diethyl ethanedioate] + CO
excess molar enthalpy [kcal/mol]
Conditions	288.2 K	298.2 K	313.2 K	328.2 K
x1 = 0.0493	–	0.0523 ± 0.0012	0.06 ± 0.00143	0.0674 ± 0.00167
x1 = 0.0494	0.0464 ± 0.000956	–	–	–
x1 = 0.1004	–	0.101 ± 0.00143	0.12 ± 0.00167	0.139 ± 0.00167
x1 = 0.1005	0.0887 ± 0.0012	–	–	–
x1 = 0.1593	–	0.15 ± 0.00167	0.176 ± 0.00191	0.204 ± 0.00215
x1 = 0.2003	–	0.1771 ± 0.00167	0.2096 ± 0.00191	0.2407 ± 0.00215
x1 = 0.2004	0.156 ± 0.00167	–	–	–
x1 = 0.2505	–	0.207 ± 0.00191	0.2419 ± 0.00215	0.2789 ± 0.00239
x1 = 0.2507	0.1845 ± 0.00167	–	–	–
x1 = 0.299	–	0.2323 ± 0.00215	0.2725 ± 0.00239	0.3126 ± 0.00263
x1 = 0.2991	0.2072 ± 0.00191	–	–	–
x1 = 0.3509	–	0.2545 ± 0.00215	0.2978 ± 0.00263	0.3406 ± 0.00287
x1 = 0.3511	0.2259 ± 0.00215	–	–	–
x1 = 0.4017	–	0.2706 ± 0.00239	0.316 ± 0.00263	0.3616 ± 0.00311
x1 = 0.4019	0.2419 ± 0.00215	–	–	–
x1 = 0.4494	–	0.2823 ± 0.00239	0.3284 ± 0.00287	0.3731 ± 0.00311
x1 = 0.4496	0.2522 ± 0.00215	–	–	–
x1 = 0.4973	–	0.2909 ± 0.00263	0.3387 ± 0.00287	0.3843 ± 0.00311
x1 = 0.4975	0.261 ± 0.00239	–	–	–
x1 = 0.5507	–	0.2942 ± 0.00263	0.3399 ± 0.00287	0.3843 ± 0.00311
x1 = 0.5509	0.2658 ± 0.00239	–	–	–
x1 = 0.5967	–	0.2935 ± 0.00263	0.3377 ± 0.00287	0.3798 ± 0.00311
x1 = 0.5969	0.2651 ± 0.00239	–	–	–
x1 = 0.6473	–	0.2856 ± 0.00239	0.3274 ± 0.00287	0.3633 ± 0.00311
x1 = 0.6475	0.2605 ± 0.00239	–	–	–
x1 = 0.7032	–	0.2694 ± 0.00239	0.3112 ± 0.00263	0.3389 ± 0.00287
x1 = 0.7033	0.2467 ± 0.00215	–	–	–
x1 = 0.7468	–	0.2588 ± 0.00215	0.2911 ± 0.00263	0.3105 ± 0.00263
x1 = 0.7469	0.2333 ± 0.00215	–	–	–
x1 = 0.8037	–	0.238 ± 0.00215	0.2593 ± 0.00239	0.2641 ± 0.00239
x1 = 0.8039	0.2072 ± 0.00191	–	–	–
x1 = 0.8449	–	0.209 ± 0.00215	0.2285 ± 0.00215	0.2216 ± 0.00215
x1 = 0.845	0.18 ± 0.00191	–	–	–
x1 = 0.9004	–	0.152 ± 0.00191	0.156 ± 0.00191	0.147 ± 0.00191
x1 = 0.9005	0.127 ± 0.00167	–	–	–
x1 = 0.9484	0.0676 ± 0.00143	0.0887 ± 0.00167	0.0944 ± 0.00167	0.0844 ± 0.00167

CCOC(=O)C(=O)OCC [diethyl ethanedioate] + CCO
excess molar enthalpy [kcal/mol]
Conditions	288.2 K	298.2 K	313.2 K	328.2 K
x1 = 0.0495	0.0698 ± 0.00143	0.0837 ± 0.00191	0.0949 ± 0.00215	0.104 ± 0.00215
x1 = 0.0994	0.135 ± 0.00191	0.161 ± 0.00191	0.185 ± 0.00239	0.205 ± 0.00263
x1 = 0.1508	0.194 ± 0.00215	0.222 ± 0.00215	0.257 ± 0.00263	0.2875 ± 0.00287
x1 = 0.2004	0.237 ± 0.00239	0.2679 ± 0.00239	0.3093 ± 0.00287	0.3468 ± 0.00311
x1 = 0.2497	0.2763 ± 0.00263	0.3083 ± 0.00287	0.3564 ± 0.00311	0.4006 ± 0.00335
x1 = 0.3009	0.3045 ± 0.00263	0.3411 ± 0.00287	0.3929 ± 0.00335	0.4379 ± 0.00359
x1 = 0.3502	0.3272 ± 0.00287	0.3654 ± 0.00311	0.4209 ± 0.00359	0.4706 ± 0.00382
x1 = 0.4003	0.3466 ± 0.00311	0.3846 ± 0.00335	0.4419 ± 0.00359	0.4933 ± 0.00406
x1 = 0.4508	0.3566 ± 0.00311	0.3989 ± 0.00335	0.4582 ± 0.00382	0.5081 ± 0.00406
x1 = 0.5011	0.3642 ± 0.00311	0.4051 ± 0.00335	0.463 ± 0.00382	0.5127 ± 0.0043
x1 = 0.5506	0.365 ± 0.00311	0.4051 ± 0.00335	0.4613 ± 0.00382	0.5112 ± 0.0043
x1 = 0.5986	0.3611 ± 0.00311	0.4001 ± 0.00335	0.4541 ± 0.00382	0.499 ± 0.00406
x1 = 0.6502	0.3511 ± 0.00311	0.385 ± 0.00335	0.4362 ± 0.00359	0.4775 ± 0.00406
x1 = 0.6996	0.3325 ± 0.00287	0.3638 ± 0.00311	0.4101 ± 0.00359	0.4474 ± 0.00382
x1 = 0.7525	0.3057 ± 0.00263	0.332 ± 0.00287	0.3731 ± 0.00311	0.4001 ± 0.00335
x1 = 0.8021	0.2713 ± 0.00239	0.2935 ± 0.00263	0.325 ± 0.00287	0.3456 ± 0.00311
x1 = 0.8473	0.2268 ± 0.00215	0.2481 ± 0.00239	0.2691 ± 0.00263	0.2878 ± 0.00287
x1 = 0.9034	0.164 ± 0.00191	0.172 ± 0.00215	0.19 ± 0.00239	0.194 ± 0.00239
x1 = 0.946	0.0997 ± 0.00167	0.101 ± 0.00191	0.116 ± 0.00215	0.116 ± 0.00215

CCOC(=O)C(=O)OCC [diethyl ethanedioate] + CC(C)O
excess molar enthalpy [kcal/mol]
Conditions	288.2 K	298.2 K	313.2 K	328.2 K
x1 = 0.0492	0.124 ± 0.00239	0.131 ± 0.00263	0.14 ± 0.00287	0.145 ± 0.00311
x1 = 0.0997	0.225 ± 0.00263	0.247 ± 0.00287	0.269 ± 0.00311	0.287 ± 0.00335
x1 = 0.1514	0.3023 ± 0.00287	0.332 ± 0.00311	0.3647 ± 0.00359	0.3903 ± 0.00359
x1 = 0.2009	0.3566 ± 0.00335	0.3936 ± 0.00359	0.4376 ± 0.00382	0.4658 ± 0.00406
x1 = 0.2507	0.4092 ± 0.00359	0.4541 ± 0.00382	0.5005 ± 0.0043	0.5368 ± 0.00454
x1 = 0.3005	0.4379 ± 0.00382	0.4852 ± 0.00406	0.5394 ± 0.00454	0.5741 ± 0.00478
x1 = 0.3499	0.4682 ± 0.00406	0.517 ± 0.0043	0.5717 ± 0.00478	0.6092 ± 0.00502
x1 = 0.3987	0.4837 ± 0.00406	0.5344 ± 0.0043	0.5896 ± 0.00478	0.635 ± 0.00526
x1 = 0.4504	0.4962 ± 0.00406	0.5461 ± 0.00454	0.6052 ± 0.00502	0.6417 ± 0.00526
x1 = 0.501	0.4976 ± 0.00406	0.5447 ± 0.00454	0.6033 ± 0.00502	0.6405 ± 0.00526
x1 = 0.55	0.4995 ± 0.00406	0.5442 ± 0.00454	0.5942 ± 0.00478	0.6317 ± 0.00502
x1 = 0.6018	0.4876 ± 0.00406	0.5284 ± 0.0043	0.5772 ± 0.00478	0.6126 ± 0.00502
x1 = 0.6515	0.4696 ± 0.00382	0.5072 ± 0.0043	0.5485 ± 0.00454	0.5774 ± 0.00478
x1 = 0.6985	0.4419 ± 0.00382	0.4763 ± 0.00406	0.5143 ± 0.0043	0.5385 ± 0.00454
x1 = 0.7478	0.4046 ± 0.00359	0.4319 ± 0.00359	0.4673 ± 0.00406	0.4847 ± 0.00406
x1 = 0.7996	0.354 ± 0.00311	0.3762 ± 0.00335	0.3984 ± 0.00359	0.4166 ± 0.00382
x1 = 0.8479	0.2935 ± 0.00287	0.308 ± 0.00311	0.3279 ± 0.00311	0.3356 ± 0.00335
x1 = 0.8985	0.217 ± 0.00263	0.223 ± 0.00263	0.238 ± 0.00287	0.235 ± 0.00287
x1 = 0.9515	0.118 ± 0.00215	0.112 ± 0.00239	0.114 ± 0.00263	0.121 ± 0.00239
